Values joined by “and” are separate entries in the source; they are usually repeats but may differ in a detail not shown here. Equal values may be shown once.
Experiments:
SK-OV-3 = settings: for TGI: SK-OV-3, ovarian cancer, no p53 protein expressed, 48 h
DU-145 = settings: for TGI: DU-145, prostate cancer, mutant p53, 48 h
HCT-15 = settings: for TGI: HCT-15, colon cancer, mutant p53, 48 h
UACC-257 = settings: for TGI: UACC-257, melanoma, wild-type p53, 48 h
SW-620 = settings: for TGI: SW-620, colon cancer, mutant p53, 48 h
UO-31 = settings: for TGI: UO-31, renal cancer, wild-type p53, 48 h
COLO 205 = settings: for TGI: COLO 205, colon cancer, mutant p53, 48 h
SNB-19 = settings: for TGI: SNB-19, CNS cancer (brain tumor), mutant p53, 48 h
OVCAR-3 = settings: for TGI: OVCAR-3, ovarian cancer, mutant p53, 48 h
SNB-75 = settings: for TGI: SNB-75, CNS cancer (brain tumor), mutant p53, 48 h
SF-268 = settings: for TGI: SF-268, CNS cancer (brain tumor), mutant p53, 48 h
[1] = system: 60 human cancer cell lines; settings: for induction of cancer cell death (classification): NCI 60 panel overall; for Mean of Inhibition Data (MID) TGI, 10^MID: mean over all tested cell lines of the NCI 60 panel
Excerpt: The defined tumor inhibition criterion (GI50, TGI, or LC50) is recalculated in log10 expression, and the colored bars, which indicate then the sensitivity of the individual tumor cell line to the agent, are given in log10 units. […] The most important feature is at the bottom of the page: the MID (Mean of Inhibition Data) indicates the mean concentration for all tested cell lines required for the drug to reach the defined tumor inhibition criterion (GI50, TGI, or LC50). It is given in Log10GI50, Log10TGI, and Log10LC50. From those values, the corresponding MID is calculated. […] The MID can be transformed from logarithmic into linear concentrations by the formula: c = 10^MID.
The human tumor cell lines of the cancer screening panel are grown in RPMI-1640 medium containing 5% fetal bovine serum (FBS) and 2 mM L-glutamine. For a typical screening experiment, cells are inoculated into 96-well microtiter plates in 100 μL at plating densities ranging from 5000 to 40,000 cells/well, depending on the doubling time of individual cell lines. After cell inoculation, the microtiter plates are incubated at 37 °C, 5% CO2, 95% air, and 100% relative humidity for 24 h prior to the addition of experimental drugs. After 24 h, two plates of each cell line are fixed in situ with trichloroacetic acid (TCA) to represent a measurement of the cell population for each cell line at the time of drug addition (Tz). Experimental drugs are solubilized in dimethyl sulfoxide (DMSO) at 400-fold the desired final maximum test concentration and stored frozen prior to use. At the time of drug addition, an aliquot of frozen concentrate is thawed and diluted to twice the desired final maximum test concentration with a complete medium containing 50 μg/mL gentamicin. Additional four, 10-fold or ½ log serial dilutions are made to provide a total of five drug concentrations plus control. Aliquots of 100 μL of these different drug dilutions are added to the appropriate microtiter wells already containing 100 μL of the medium, resulting in the required final drug concentrations.
Following drug addition, the plates are incubated for an additional 48 h at 37 °C, 5% CO2, 95% air, and 100% relative humidity. For adherent cells, the assay is terminated by the addition of cold TCA. Cells are fixed in situ by the gentle addition of 50 μL of cold 50% (m/v) TCA (final concentration, 10% TCA) and incubated for 60 min at 4 °C. The supernatant is discarded, and the plates are washed five times with tap water and air dried. Sulforhodamine B (SRB) solution [100 μL at 0.4% (m/v) in 1% acetic acid] is added to each well, and plates are incubated for 10 min at room temperature. After staining, unbound dye is removed by washing five times with 1% acetic acid, and the plates are air dried. Bound stain is subsequently solubilized with 10 mM trizma® base [2-amino-2-(hydroxymethyl)-1,3-propandiol, tris base, trometamol], and the absorbance is read on an automated plate reader at a wavelength of λ = 515 nm. For suspension cells, the methodology is the same, except that the assay is terminated by fixing settled cells at the bottom of the wells by gently adding 50 μL of 80% TCA (final concentration, 16% TCA). Using the seven absorbance measurements [time zero, (Tz), control growth, (C), and test growth in the presence of the drug at the five concentration levels (Ti)], the percentage growth is calculated at each of the drug concentration levels. Percentage growth inhibition is calculated as:[(Ti − Tz)/(C − Tz)] × 100 for concentrations for which Ti ≥ Tz [(Ti − Tz)/Tz] × 100 for concentrations for which Ti < Tz
Three dose-response parameters are calculated for each experimental agent.

SF-295 = settings: for TGI: SF-295, CNS cancer (brain tumor), mutant p53, 48 h
SK-MEL-2 = settings: for TGI: SK-MEL-2, melanoma, mutant p53, 48 h
OVCAR-4 = settings: for TGI: OVCAR-4, ovarian cancer, mutant p53, 48 h
HT29 = settings: for TGI: HT29, colon cancer, mutant p53, 48 h
ACHN = settings: for TGI: renal cancer, wild-type p53, 48 h
DU-145 cells = test: Cytochrome c assay (mitochondrial and cytosolic), ELISA; assay type: cell-based, human; settings: for toxicity for the cell line / concentration at which cytochrome c translocation from mitochondria into the cytosol was readily induced: 25 µM; for toxicity for the cell line: 50 µM and 75 µM, 48 h post-treatment; for concentration at which cytochrome c translocation from mitochondria into the cytosol was readily induced: tested 500 nM, 1 µM, 5 µM
Experimental: (§1) Cell numbers of 2 × 10^6 PC-3 and DU-145 cells were seeded into a […]. […] The protein content for each fraction was calculated to determine the mass content of cytochrome c in each fraction (pg cytochrome c/mg total protein). The mass content of cytochrome c (pg cytochrome c/mg total protein) was normalized towards the corresponding blank DMSO control and is given in percent (%) of blank DMSO control.

PC-3 cells = test: as above; assay type: cell-based, human; settings: for toxicity for the cell line / concentration at which cytochrome c translocation from mitochondria into the cytosol was readily induced: 25 µM; for toxicity for the cell line: 50 µM and 75 µM, 48 h post-treatment; for concentration at which cytochrome c translocation from mitochondria into the cytosol was readily induced: tested 500 nM, 1 µM, 5 µM
Experimental: as §1

NCI-H23 = settings: for TGI: NCI-H23, non-small-cell lung cancer, mutant p53, 48 h
A498 = settings: for TGI: A498, renal cancer, wild-type p53, 48 h
MDA-MB-468 = settings: for TGI: MDA-MB-468, breast cancer, mutant p53, 48 h
NCI/ADR-RES = settings: for TGI: ovarian cancer, mutant p53, 48 h
SK-MEL-5 = settings: for TGI: SK-MEL-5, melanoma, wild-type p53, 48 h
RPMI-8226 = settings: for TGI: RPMI-8226, leukemia, mutant p53, 48 h
MCF7 = settings: for TGI: MCF7, breast cancer, wild-type p53, 48 h
[2] = Homo sapiens, 48 h, read-out: LC50

Structure (SMILES): COc1cc2c(c(OC)c1OC)-c1ccc(NNC(=S)N(Cc3cccc(C[N+](Cc4cccc(CNC56CC7CC(CC(C7)C5)C6)c4)(Cc4cccc(CNC56CC7CC(CC(C7)C5)C6)c4)Cc4cccc(CN(C(=S)NNc5ccc6c(cc5=O)C(NC(C)=O)CCc5cc(OC)c(OC)c(OC)c5-6)C56CC7CC(CC(C7)C5)C6)c4)c3)C34CC5CC(CC(C5)C3)C4)c(=O)cc1C(NC(C)=O)CC2 [Compound 3, [(bis{3-[(tricyclo[3.3.1.1^3,7]decan-1-ylamino)methyl]benzyl}ammonio)bis(methanediylbenzene-3,1-diylmethanediyl)]di-2-[(aS,7S)-7-(acetylamino)-1,2,3-trimethoxy-9-oxo-5,6,7,9-tetrahydrobenzo[a]heptalen-10-yl]-N-(tricyclo[3.3.1.1^3,7]decan-1-yl)hydrazinecarbothioamide chloride pentahydrate]
- TGI (SK-OV-3): 7.51 µM
- TGI (DU-145): 7.10 µM
- TGI (HCT-15): 5.96 µM
- TGI (UACC-257): 10.3 µM
- TGI (SW-620): 2.06 µM
- TGI (UO-31): 7.20 µM
- TGI (COLO 205): 1.52 µM
- TGI (SNB-19): 6.20 µM
- TGI (OVCAR-3): 6.53 µM
- TGI (SNB-75): 6.68 µM
- TGI (SF-268): 6.54 µM
- induction of cancer cell death (classification) [1]: tumoricidal
- Mean of Inhibition Data (MID) TGI, 10^MID [1]: 4.571 µM and 4.57 µM
- TGI (SF-295): 5.92 µM
- TGI (SK-MEL-2): 2.76 µM
- TGI (OVCAR-4): 8.94 µM
- TGI (HT29): 2.81 µM
- TGI (ACHN): 7.99 µM
- toxicity for the cell line (DU-145 cells): highly toxic
- concentration at which cytochrome c translocation from mitochondria into the cytosol was readily induced (DU-145 cells; 48 h): 25.0 µM
- toxicity for the cell line (PC-3 cells): highly toxic
- cell death with depletion of cytosolic cytochrome c (PC-3 cells; 25.0 µM, 48 h): induced complete cell death
- concentration at which cytochrome c translocation from mitochondria into the cytosol was readily induced (PC-3 cells; 48 h): 5.0 µM
- TGI (NCI-H23): 5.33 µM
- TGI (A498): 3.28 µM
- TGI (MDA-MB-468): 1.75 µM
- TGI (NCI/ADR-RES): 12.5 µM
- TGI (SK-MEL-5): 2.25 µM
- TGI (RPMI-8226): 1.76 µM
- TGI (MCF7): 3.44 µM

Structure (SMILES): c1cc(CNC23CC4CC(CC(C4)C2)C3)cc(C[N+](Cc2cccc(CNC34CC5CC(CC(C5)C3)C4)c2)(Cc2cccc(CNC34CC5CC(CC(C5)C3)C4)c2)Cc2cccc(CNC34CC5CC(CC(C5)C3)C4)c2)c1 (stereo not drawn) [Compound 1, tetrakis{3-[(tricyclo[3.3.1.1^3,7]decan-1-ammonio)methyl]benzyl}ammonium pentachloride]
- GI50 (SK-OV-3; Homo sapiens, SK-OV-3, 48 h): 5.11 µM
- CC50 (SK-OV-3; Homo sapiens, SK-OV-3, 48 h, read-out: LC50): 25.5 µM
- TGI (SK-OV-3): 11.4 µM
- TGI (DU-145): 4.61 µM
- GI50 (DU-145; Homo sapiens, DU-145, 48 h): 1.47 µM
- CC50 (DU-145; Homo sapiens, DU-145, 48 h, read-out: LC50): 15.2 µM
- TGI (HCT-15): 3.91 µM
- GI50 (HCT-15; Homo sapiens, HCT-15, 48 h): 1.1 µM
- CC50 (HCT-15; Homo sapiens, HCT-15, 48 h, read-out: LC50): 18.4 µM
- GI50 (UACC-257; Homo sapiens, UACC-257, 48 h): 3.08 µM
- CC50 (UACC-257; Homo sapiens, UACC-257, 48 h, read-out: LC50): 29.4 µM
- TGI (UACC-257): 10.8 µM
- GI50 (SW-620; Homo sapiens, SW-620, 48 h): 1.25 µM
- CC50 (SW-620; Homo sapiens, SW-620, 48 h, read-out: LC50): 17.2 µM
- TGI (SW-620): 3.95 µM
- GI50 (UO-31; Homo sapiens, UO-31, 48 h): 0.817 µM
- CC50 (UO-31; Homo sapiens, UO-31, 48 h, read-out: LC50): 4.73 µM
- TGI (UO-31): 1.96 µM
- TGI (COLO 205): 3.13 µM
- GI50 (COLO 205; Homo sapiens, COLO 205, 48 h): 1.09 µM
- CC50 (COLO 205; Homo sapiens, COLO 205, 48 h, read-out: LC50): 24.8 µM
- GI50 (SNB-19; Homo sapiens, SNB-19, 48 h): 1.92 µM
- CC50 (SNB-19; Homo sapiens, SNB-19, 48 h, read-out: LC50): 19.9 µM
- TGI (SNB-19): 7.27 µM
- GI50 (OVCAR-3; Homo sapiens, OVCAR-3, 48 h): 1.04 µM
- CC50 (OVCAR-3; Homo sapiens, OVCAR-3, 48 h, read-out: LC50): 9.97 µM
- TGI (OVCAR-3): 2.82 µM
- GI50 (SNB-75; Homo sapiens, SNB-75, 48 h): 2.34 µM
- CC50 (SNB-75; Homo sapiens, SNB-75, 48 h, read-out: LC50): 27.9 µM
- TGI (SNB-75): 9.73 µM
- GI50 (SF-268; Homo sapiens, SF-268, 48 h): 1.53 µM
- CC50 (SF-268; Homo sapiens, SF-268, 48 h, read-out: LC50): 30.8 µM
- TGI (SF-268): 5.41 µM
- GI50 ([1]; Homo sapiens, read-out: Mean of Inhibition Data (MID) GI50, 10^MID): 1.29 µM
- CC50 ([1]; Homo sapiens, read-out: Mean of Inhibition Data (MID) LC50, 10^MID): 16.6 µM
- induction of cancer cell death (classification) [1]: tumoricidal
- Mean of Inhibition Data (MID) TGI, 10^MID [1]: 4.677 µM
- GI50 (SF-295; Homo sapiens, SF-295, 48 h): 3.05 µM
- CC50 (SF-295; Homo sapiens, SF-295, 48 h, read-out: LC50): 28.2 µM
- TGI (SF-295): 10.4 µM
- GI50 (SK-MEL-2; Homo sapiens, SK-MEL-2, 48 h): 1.06 µM
- CC50 (SK-MEL-2; Homo sapiens, SK-MEL-2, 48 h, read-out: LC50): 15.6 µM
- TGI (SK-MEL-2): 3.20 µM
- GI50 (OVCAR-4; Homo sapiens, OVCAR-4, 48 h): 1.16 µM
- CC50 (OVCAR-4; Homo sapiens, OVCAR-4, 48 h, read-out: LC50): 18.4 µM
- TGI (OVCAR-4): 5.45 µM
- TGI (HT29): 2.82 µM
- GI50 (HT29; Homo sapiens, HT-29, 48 h): 0.857 µM
- CC50 (HT29; Homo sapiens, HT-29, 48 h, read-out: LC50): 14.6 µM
- GI50 (ACHN; Homo sapiens, 48 h): 0.874 µM
- CC50 (ACHN; [2]): 5.55 µM
- TGI (ACHN): 2.14 µM
- toxicity for the cell line (DU-145 cells): highly toxic
- cell death with depletion of cytosolic cytochrome c (DU-145 cells; 25.0 µM, 48 h): induced complete cell death
- concentration at which cytochrome c translocation from mitochondria into the cytosol was readily induced (DU-145 cells; 48 h): 5.0 µM
- toxicity for the cell line (PC-3 cells): highly toxic
- concentration at which cytochrome c translocation from mitochondria into the cytosol was readily induced (PC-3 cells; 48 h): 25.0 µM
- GI50 (NCI-H23; Homo sapiens, NCI-H23, 48 h): 1.53 µM
- CC50 (NCI-H23; Homo sapiens, NCI-H23, 48 h, read-out: LC50): 28.2 µM
- TGI (NCI-H23): 6.36 µM
- TGI (A498): 7.05 µM
- GI50 (A498; Homo sapiens, A498, 48 h): 1.19 µM
- CC50 (A498; Homo sapiens, A498, 48 h, read-out: LC50): 21.2 µM
- GI50 (MDA-MB-468; Homo sapiens, MDA-MB-468, 48 h): 0.797 µM
- CC50 (MDA-MB-468; Homo sapiens, MDA-MB-468, 48 h, read-out: LC50): 3.55 µM
- TGI (MDA-MB-468): 1.68 µM
- GI50 (NCI/ADR-RES; Homo sapiens, 48 h): 1.44 µM
- CC50 (NCI/ADR-RES; [2]): > 50 µM
- TGI (NCI/ADR-RES): 4.55 µM
- GI50 (SK-MEL-5; Homo sapiens, SK-MEL-5, 48 h): 1.52 µM
- CC50 (SK-MEL-5; Homo sapiens, SK-MEL-5, 48 h, read-out: LC50): 18.6 µM
- TGI (SK-MEL-5): 6.28 µM
- GI50 (RPMI-8226; Homo sapiens, RPMI-8226, 48 h): 1.32 µM
- CC50 (RPMI-8226; Homo sapiens, RPMI-8226, 48 h, read-out: LC50): > 50 µM
- TGI (RPMI-8226): 3.99 µM
- GI50 (MCF7; Homo sapiens, MCF7, 48 h): 1.07 µM
- CC50 (MCF7; Homo sapiens, MCF7, 48 h, read-out: LC50): 45.8 µM
- TGI (MCF7): 6.19 µM

From article PMC10892984, “Novel Antineoplastic Inducers of Mitochondrial Apoptosis in Human Cancer Cells” (Molecules, 2024)
